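GI50 marks 50% less growth. TGI marks complete inhibition of growth.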
Columns and labels:
Assay in all cases: NCI-60 cell line screen, 384-well format
HL-60(TB) leukemia = system: HL-60(TB) leukemia
MOLT-4 leukemia = system: MOLT-4 leukemia
SK-MEL-2 melanoma = system: SK-MEL-2 melanoma
HS 578T breast = system: HS 578T breast
EKVX NSCLC = system: EKVX NSCLC
OVCAR-3 ovarian = system: OVCAR-3 ovarian
COLO 205 colon = system: COLO 205 colon
A498 renal = system: A498 renal
OVCAR-5 ovarian = system: OVCAR-5 ovarian
RXF 393 renal = system: RXF 393 renal
SF-539 CNS = system: SF-539 CNS
SK-OV-3 ovarian = system: SK-OV-3 ovarian
A549 NSCLC = system: A549 NSCLC
HCT-116 colon = system: HCT-116 colon
HOP-92 NSCLC = system: HOP-92 NSCLC
UACC-257 melanoma = system: UACC-257 melanoma
NCI-H226 lung = system: NCI-H226 lung
KM12 colon = system: KM12 colon
PC-3 prostate = system: PC-3 prostate
SF-268 CNS = system: SF-268 CNS
DU-145 prostate = system: DU-145 prostate
NCI-H322M lung = system: NCI-H322M lung
SN12C renal = system: SN12C renal
SR leukemia = system: SR leukemia
UACC-62 melanoma = system: UACC-62 melanoma
M14 melanoma = system: M14 melanoma
NCI-H460 NSCLC = system: NCI-H460 NSCLC
UO-31 renal = system: UO-31 renal
SW-620 colon = system: SW-620 colon
MDA-MB-435 melanoma = system: MDA-MB-435 melanoma
MDA-MB-231 breast = system: MDA-MB-231 breast
IGROV1 ovarian = system: IGROV1 ovarian
OVCAR-4 ovarian = system: OVCAR-4 ovarian
U251 glioblastoma = system: U251 glioblastoma
HCT-15 colon = system: HCT-15 colon
SNB-75 CNS = system: SNB-75 CNS
SF-295 CNS = system: SF-295 CNS
T-47D breast = system: T-47D breast
MDA-MB-468 breast = system: MDA-MB-468 breast
OVCAR-8 ovarian = system: OVCAR-8 ovarian
NCI-H522 lung = system: NCI-H522 lung
HOP-62 NSCLC = system: HOP-62 NSCLC
SK-MEL-28 melanoma = system: SK-MEL-28 melanoma
SNB-19 CNS = system: SNB-19 CNS
CAKI-1 renal = system: CAKI-1 renal
TK-10 renal = system: TK-10 renal
MCF7 breast = system: MCF7 breast
ACHN renal = system: ACHN renal
K-562 leukemia = system: K-562 leukemia
786-0 renal = system: 786-0 renal
HT29 colon = system: HT29 colon
SK-MEL-5 melanoma = system: SK-MEL-5 melanoma
BT-549 breast = system: BT-549 breast
NCI-H23 lung = system: NCI-H23 lung
MALME-3M melanoma = system: MALME-3M melanoma

Structure (SMILES): COC1CCC(n2c([C@@H]3CCCC(=O)N3c3ccc(F)c(F)c3)nc3cc(-c4c(C)noc4C)ccc32)CC1 (stereo not given in full)
- GI50 (HL-60(TB) leukemia): 0.0497 µM
- TGI (HL-60(TB) leukemia): 1.2 µM
- GI50 (MOLT-4 leukemia): 2.05 µM
- TGI (MOLT-4 leukemia): 14 µM
- GI50 (SK-MEL-2 melanoma): 4.46 µM
- TGI (SK-MEL-2 melanoma): 18.4 µM
- GI50 (HS 578T breast): 0.716 µM
- TGI (HS 578T breast): 14.2 µM
- GI50 (EKVX NSCLC): 15.6 µM
- TGI (EKVX NSCLC): 43.2 µM
- GI50 (OVCAR-3 ovarian): 2.9 µM
- TGI (OVCAR-3 ovarian): 16.1 µM
- GI50 (COLO 205 colon): 3.44 µM
- TGI (COLO 205 colon): 18.9 µM
- GI50 (A498 renal): 6.19 µM
- TGI (A498 renal): 19.4 µM
- GI50 (OVCAR-5 ovarian): 11.3 µM
- TGI (OVCAR-5 ovarian): 58.7 µM
- GI50 (RXF 393 renal): 1.24 µM
- TGI (RXF 393 renal): 5.22 µM
- GI50 (SF-539 CNS): 5.76 µM
- TGI (SF-539 CNS): 19 µM
- GI50 (SK-OV-3 ovarian): 3.96 µM
- TGI (SK-OV-3 ovarian): 16.2 µM
- GI50 (A549 NSCLC): 8.03 µM
- TGI (A549 NSCLC): 23.5 µM
- GI50 (HCT-116 colon): 4.48 µM
- TGI (HCT-116 colon): 18.4 µM
- GI50 (HOP-92 NSCLC): 4.57 µM
- TGI (HOP-92 NSCLC): 18.8 µM
- GI50 (UACC-257 melanoma): 3.1 µM
- TGI (UACC-257 melanoma): 17.4 µM
- GI50 (NCI-H226 lung): 1.07 µM
- TGI (NCI-H226 lung): 12.1 µM
- GI50 (KM12 colon): 13.6 µM
- TGI (KM12 colon): 28.3 µM
- GI50 (PC-3 prostate): 3.97 µM
- TGI (PC-3 prostate): 19.5 µM
- GI50 (SF-268 CNS): 11.9 µM
- TGI (SF-268 CNS): 25.6 µM
- GI50 (DU-145 prostate): 12.8 µM
- TGI (DU-145 prostate): 60.4 µM
- GI50 (NCI-H322M lung): 3.02 µM
- TGI (NCI-H322M lung): 15.6 µM
- GI50 (SN12C renal): 12 µM
- TGI (SN12C renal): 25.4 µM
- GI50 (SR leukemia): 1.22 µM
- TGI (SR leukemia): 13.8 µM
- GI50 (UACC-62 melanoma): 0.385 µM
- TGI (UACC-62 melanoma): 12.1 µM
- GI50 (M14 melanoma): 0.568 µM
- TGI (M14 melanoma): 14.9 µM
- GI50 (NCI-H460 NSCLC): 3.29 µM
- TGI (NCI-H460 NSCLC): 16.8 µM
- GI50 (UO-31 renal): 2.13 µM
- TGI (UO-31 renal): 13.8 µM
- GI50 (SW-620 colon): 13.9 µM
- TGI (SW-620 colon): 27.5 µM
- GI50 (MDA-MB-435 melanoma): 7.03 µM
- TGI (MDA-MB-435 melanoma): 23.9 µM
- GI50 (MDA-MB-231 breast): 3.05 µM
- TGI (MDA-MB-231 breast): 16.2 µM
- GI50 (IGROV1 ovarian): 3.36 µM
- TGI (IGROV1 ovarian): 15.5 µM
- GI50 (OVCAR-4 ovarian): 1.79 µM
- TGI (OVCAR-4 ovarian): 7.76 µM
- GI50 (U251 glioblastoma): 12 µM
- TGI (U251 glioblastoma): 25.9 µM
- GI50 (HCT-15 colon): 2.95 µM
- TGI (HCT-15 colon): 14.8 µM
- GI50 (SNB-75 CNS): 12.3 µM
- TGI (SNB-75 CNS): 26 µM
- GI50 (SF-295 CNS): 5.05 µM
- TGI (SF-295 CNS): 20 µM
- GI50 (T-47D breast): 1.87 µM
- TGI (T-47D breast): 7.11 µM
- GI50 (MDA-MB-468 breast): 2.94 µM
- TGI (MDA-MB-468 breast): 18.6 µM
- GI50 (OVCAR-8 ovarian): 2.8 µM
- TGI (OVCAR-8 ovarian): 15.8 µM
- GI50 (NCI-H522 lung): 1.38 µM
- TGI (NCI-H522 lung): 12.2 µM
- GI50 (HOP-62 NSCLC): 2.92 µM
- TGI (HOP-62 NSCLC): 15.4 µM
- GI50 (SK-MEL-28 melanoma): 7.88 µM
- TGI (SK-MEL-28 melanoma): 21.6 µM
- GI50 (SNB-19 CNS): 11.5 µM
- TGI (SNB-19 CNS): 27.6 µM
- GI50 (CAKI-1 renal): 0.532 µM
- TGI (CAKI-1 renal): 13.2 µM
- GI50 (TK-10 renal): 1.55 µM
- TGI (TK-10 renal): 11.8 µM
- GI50 (MCF7 breast): 0.0402 µM
- TGI (MCF7 breast): 12.4 µM
- GI50 (ACHN renal): 3.62 µM
- TGI (ACHN renal): 16.6 µM
- GI50 (K-562 leukemia): 1.51 µM
- TGI (K-562 leukemia): 16.1 µM
- GI50 ([…]-0 renal): 2.1 µM
- TGI (786-0 renal): 19.9 µM
- GI50 (HT29 colon): 1.6 µM
- TGI (HT29 colon): 13.7 µM
- GI50 (SK-MEL-5 melanoma): 0.489 µM
- TGI (SK-MEL-5 melanoma): 8.77 µM
- GI50 (BT-549 breast): 2.27 µM
- TGI (BT-549 breast): 15.5 µM
- GI50 (NCI-H23 lung): 10.2 µM
- TGI (NCI-H23 lung): 25.1 µM
- GI50 (MALME-3M melanoma): 1.04 µM
- TGI (MALME-3M melanoma): 6.35 µM
